Measured values from article PMC6736568, “Discovery of Novel Anti-cryptosporidial Activities From Natural Products by in vitro High-Throughput Phenotypic Screening” (Frontiers in Microbiology, 2019).

Assays:
HCT-8 host cells (Hs18S) = conditions: primary screening at 10 uM; for Hs18S ΔCT: treated vs control; for Cytotoxicity (%): from Hs18S ΔCT
Cryptosporidium parvum = test: qRT-PCR assay of the growth of C. parvum in vitro in HCT-8 host cells (primary and secondary screening, EC50); format: cell-based

Row | Compound | Hs18S ΔCT (HCT-8 host cells (Hs18S)) | other results
1 | CC1(C)C(=O)C=C[C@]2(C)[C@H]3CC[C@@]4(C)[C@H](c5ccoc5)OC(=O)[C@H]5O[C@]54[C@]3(C)C=C[C@@H]12 [7-DESACETOXY-6,7-DEHYDROGEDUNIN] | 5.31 | 
2 | C=CCc1cc(OC)c2c(c1OC)OCO2 [APIOLE] | 0.06 | 
3 | CN1CCc2cc3c(cc2[C@H]1[C@@H]1OC(=O)c2c1ccc1c2OCO1)OCO3 [BICUCULLINE (+)] | -1.43 | Cytotoxicity (%) (HCT-8 host cells (Hs18S)): -169.4%
4 | CC12CCC(CC1=O)C2(C)C [CAMPHOR (1R)] | -0.22 | 
5 | COC(=O)C[C@H]1C(C)(C)C(=O)[C@@H]2CC3=C(CC[C@]4(C)C3=CC(=O)O[C@H]4c3ccoc3)[C@@]1(C)C2=O [CARAPIN-8(9)-ENE] | -0.62 | 
6 | C=C1CC/C=C(\C)CC[C@@H]2[C@@H]1CC2(C)C [CARYOPHYLLENE [t(-)]] | 0.32 | Cytotoxicity (%) (HCT-8 host cells (Hs18S)): 20.0%
7 | C[C@H](CCC(=O)O)[C@H]1CC[C@H]2[C@@H]3[C@H](O)C[C@@H]4C[C@H](O)CC[C@]4(C)[C@H]3C[C@H](O)[C@]12C [CHOLIC ACID] |  | inhibition at 10 µM (Cryptosporidium parvum; Cryptosporidium parvum, HCT-8, primary screening at 10 uM, read-out: Inhibition (%)): 26.7%
8 | CCC(C)C(=O)O[C@@H]1C[C@@]2(C)[C@H](c3ccoc3)OC(=O)CC23OC2(C)OC34[C@H](OC(=O)C(C)C)[C@@]3(O)[C@@H](OC(=O)C5(C)OC5C)[C@@]5(C)C[C@]3(O)[C@@](C)([C@H]5CC(=O)OC)C14O2 (stereo partly drawn) [ENTANDROPHRAGMIN] | -0.12 | 
9 | CN[C@@H](C)[C@H](O)c1ccccc1.Cl [EPHEDRINE (1R,2S) HYDROCHLORIDE] |  | Inhibition (%) (Cryptosporidium parvum; primary screening at 10 uM): 11.97%
10 | COc1cc(/C=C/C(=O)O)ccc1O [FERULIC ACID] | -0.04 | 
11 | CC[C@H](CC[C@@H](C)[C@H]1CC[C@H]2[C@@H]3CC[C@H]4C[C@@H](O)CC[C@]4(C)[C@H]3CC[C@]12C)C(C)C [FUCOSTANOL] | -0.69 | Cytotoxicity (%) (HCT-8 host cells (Hs18S)): -61.6%
12 | Cc1cc(=O)oc2cc(O)ccc12 [HYMECHROME] | -0.28 | 
13 | CC(=O)Oc1cc(-c2coc3cc(OC(C)=O)c(OC(C)=O)c(OC(C)=O)c3c2=O)cc(OC(C)=O)c1OC(C)=O [IRIGINOL HEXAACETATE] | -0.17 | 
14 | CC1(C)C=Cc2c(c3c(c4c(=O)c(-c5ccc(O)c(O)c5)coc24)OC(C)(C)CC3)O1 [ISOPOMIFERIN] | -0.07 | Cytotoxicity (%) (HCT-8 host cells (Hs18S)): -5.3%
15 | CNCc1ccccc1.Cl [N-METHYLBENZYLAMINE HYDROCHLORIDE] | -0.08 | 
16 | Cl.NCCC[C@H](N)C(=O)O [ORNITHINE HYDROCHLORIDE] |  | Inhibition (%) (Cryptosporidium parvum; primary screening at 10 uM): -42.36%
17 | CCCCCCCCCCCC[C@@H](C(=O)O)[C@H](C)C(=O)O [ROCCELLIC ACID] | -0.06 | Cytotoxicity (%) (HCT-8 host cells (Hs18S)): -4.1%
18 | COc1cc(/C=C/C(=O)O)cc(OC)c1O [SINAPIC ACID] | 0.25 | 
19 | COc1ccc(-c2cc(=O)c3c(OC)c(OC)c(OC)c(OC)c3o2)cc1 [TANGERITIN] | 0.12 | Cytotoxicity (%) (HCT-8 host cells (Hs18S)): 8.0%
20 | Cc1c(S(=O)(=O)[O-])oc2c1C(=O)C(=O)c1c-2ccc2c1CCCC2(C)C.[Na+] [TANSHINONE IIA SULFONATE SODIUM] | 0.01 | 
21 | COC1=C(OC)C(=O)C(C/C=C(\C)CC/C=C(\C)CC/C=C(\C)CC/C=C(\C)CC/C=C(\C)CC/C=C(\C)CC/C=C(\C)CC/C=C(\C)CC/C=C(\C)CCC=C(C)C)=C(C)C1=O [UBIDECARENEONE] | 0.35 | Cytotoxicity (%) (HCT-8 host cells (Hs18S)): 21.3%
22 | COc1c(O)cc2oc3cc(O)c(CC=C(C)C)c(O)c3c(=O)c2c1CC=C(C)C [alpha-MANGOSTIN] | 4.36 | Cytotoxicity (%) (HCT-8 host cells (Hs18S)): 95.1%
23 | COc1cc2c(cc1OC)C1C(=O)c3c(O)cc4c(c3OC1CO2)C=CC(C)(C)O4 (stereo not drawn) [alpha-TOXICAROL (dl)] | 0.01 | 
24 | HECOGENIN | -0.23 | 
25 | ISOTECTORIGENIN, 7-METHYL ETHER |  | Inhibition (%) (Cryptosporidium parvum; primary screening at 10 uM): -18.66%
26 | MEPARTRICIN | -0.51 | 
27 | MONENSIN SODIUM (monensin A is shown) |  | Inhibition (%) (Cryptosporidium parvum; primary screening at 10 uM): 94.05%; % Inhibition (3.3 uM) (Cryptosporidium parvum; secondary screening at 3.3 uM): 99%
